Assay results published in patent publication US5753615A, “Neuropeptides and their use as insecticides” (Queen Mary and Westfield College, priority 1993, dated 1998).
Non-standard residues stand in square brackets, D forms with d. No end group written: not given here. pGlu = O=C1CC[C@@H](C(=O)O)N1

Assays:
[1] = test system: corpora allata of the cockroach Diploptera punctata; assay type: cell-based
Procedure: Thus, it causes maximum inhibition of JH at a concentration of 1 nM, with a 50% inhibition (ED50) being achieved at 0.1 nM.

[2] = test system: corpora allata of the cockroach Diploptera punctata; details: given 'in comparison'; known allatostatins of the literature; test system not restated; cited from earlier work

| Substance | 50% inhibition (ED50) of JH production [1] | ED50 (inhibition of JH production), comparison values [2] |
| --- | --- | --- |
| GPPYDFGM-NH2 [Callatostatin 5, Gly-Pro-Pro-Tyr-Asp-Phe-Gly-Met-NH2] | 0.1 nM |  |
| [pGlu]VRFRQCYFNPISCF-OH (cysteine pairing not given here) [allatostatin of Manduca sexta] |  | 2 nM |
